Experimental findings from patent US20060083759A1, “Stabilization of the profile of release of active substances from a formulation” (priority 2002, published 2006) are described below.

The nature of this data set: release (dissolution) of clarithromycin from tablets at aging / stability testing. The format is physicochemical. Particulars: for change of tablet dissolution at aging: clarithromycin particle size over 200 μm. The source says: By comparing the profiles it has been established that the release rate of a high dosage active substance being poorly soluble in an aqueous medium from a formulation changes with aging, which is even more expressed in the conditions of an accelerated stability assay.
Thus recrystallization is kept at the lowest possible level. In the case of micronizing clarithromycin with large particles also the particle porosity and brittleness are reduced. Micronized clarithromycin can either be already the product of a basic synthesis process or it may be micronized later from clarithromycin with large particles.

Take `CC[C@H]1OC(=O)[C@H](C)[C@@H](O[C@H]2C[C@@](C)(OC)[C@@H](O)[C@H](C)O2)[C@H](C)[C@@H](O[C@@H]2O[C@H](C)C[C@H](N(C)C)[C@H]2O)[C@](C)(OC)C[C@@H](C)C(=O)[C@H](C)[C@@H](O)[C@]1(C)O` [clarithromycin]: the “changes in the release rate” value (particle size d(0.9) up to about 30 μm at the most, humidified with a minimum amount of water) was “minimized”. In addition, the “change of tablet dissolution at aging” value is on record as “noticeably decreases” (tablets made by aqueous granulation) and “noticeably increases” (tablets made by direct tabletting).
